Reference: patent US7659278B2, “Use of low molecular weight compounds for preparing a medicament useful in treating mutant p53 mediated diseases” (Aprea AB, priority 2002, dated 2010)
Like-named read-outs stand apart in the source and are kept apart here.

Legend:
[1] = test system: Saos-2-His-273 osteosarcoma cells; assay: WST-1 growth inhibition by structural analogues, Saos-2-His-273 cells with or without doxycycline; assay type: cell-based, human; conditions: for IC50: Homo sapiens, 48 h, WST-1; for R Saos-2His273: ratio IC50p53null/IC50mtp53
Description: (§1) After 12h cells were treated with analogues and incubated with compounds for 48 h. Then WST-1 cell proliferating reagent was added to each well and cell survival was estimated by reading absorbance at 450 nm by ELISA reader. The effect of structural analogues on cell growth was tested using different concentrations of the compounds, ranging from 0.1; 1; 5; 10 and 25 μM. After that curves of growth inhibition were generated based on a rational function Y=(b+cx)/1+ax by using Microcal Origin software. The coefficients (a,b,c) of the equation were determined by employing Levenberg-Marquardt algorithm.
(§2) The specificity of each compound was determined by calculation of ratio IC50p53null/IC50mtp53. Ratios equal to 1 or less are indicating non-specific activity.

[2] = test system: H1299-His-175 lung adenocarcinoma cells; assay: WST-1 growth inhibition by structural analogues, H1299-His-175 cells with or without doxycycline; assay type: cell-based, human; conditions: for IC50: Homo sapiens, 48 h, WST-1; for R H1299-His175: ratio IC50p53null/IC50mtp53
Description: as §1, §2

[3] = Dox+ (p53 null), read-out: IC50 Saos-2His273 Dox+
[4] = Dox− (mutant p53 expressed), read-out: IC50 Saos-2His273 Dox−
[5] = Dox+ (p53 null), read-out: IC50 H1299-His175 Dox+
[6] = Dox− (mutant p53 expressed), read-out: IC50 H1299-His175 Dox−

Row | Structure (SMILES) | IC50 [1, 3] [µM] | IC50 [1, 4] [µM] | R Saos-2His273 [1] | IC50 [2, 5] [µM] | IC50 [2, 6] [µM] | R H1299-His175 [2]
1 | O=C1C2CCN(CC2)C1CN1C=NC2C(Cl)=NC(Cl)=NC21 (stereo not drawn) [2-(2,6-dichloro-9-methylenepurine)-3-quinuclidinone] | 6.2 | 2.54 | 2.44 | 4.9 | 3.2 | 1.53
2 | Cc1cc2ncn(CC3C(=O)C4CCN3CC4)c2cc1C (stereo not drawn) [2-(5,6-dimethyl-benzimidazole-1-methylene)-3-quinuclidinone] | 9.24 | 4 | 2.31 | 7.1 | 4.75 | 1.51
3 | COc1ncnc2c1ncn2CC1C(=O)C2CCN1CC2 (stereo not drawn) [2-(6-methoxypurine-9-methylene)-3-quinuclidinone] | 26 | 13.7 | 1.9 | 23.2 | 15.5 | 1.5
4 | Cn1c(=O)c2c([nH]c(=O)n2CC2C(=O)C3CCN2CC3)n(C)c1=O (stereo not drawn) [2-(7-methylene-1,3-dimethyluric acid)-3-quinuclidinone] | 5.51 | 2.74 | 2.01 | 5.2 | 4.1 | 1.26
5 | Nc1ncnc2nnn(CC3C(=O)C4CCN3CC4)c12 (stereo not drawn) [2-(8-azaadenine-7-methylene)-3-quinuclidinone] | 7.27 | 2.79 | 2.61 | 4.2 | 3.3 | 1.27
6 | C=Cc1nc2ccccc2c(=O)[nH]1 [2-ethylene-4(3H)-quinazolinone] | 5.05 | 3.97 | 1.27 | 3.9 | 1.4 | 2.8
7 | CN1C(=O)C=CC1=O [N-methylmaleimide] | 6.45 | 4.04 | 1.6 | 5.4 | 2.9 | 1.86
8 | O=C1C=CC(=O)N1 [maleimide] | 7.59 | 3.37 | 2.25 | 5.2 | 3 | 1.73
